According to patent US20080139484A1, “1(Beta-D-Glycopyranosyl)-3-Substituted Nitrogenous Heterocyclic Compound, Medicinal Composition Containing the Same, and Medicinal Use Thereof” (KISSEI PHARMACEUTICAL CO., LTD., priority 2004, published 2008):

Experiments:
[1] = Test Example 3: effect on urinary glucose excretion; format: in vivo; conditions: overnight fasted male SD rats, 9 weeks of age, 1 mg/kg intravenously (2 mL/kg), urine collected for 24 hours
Protocol: As experimental animals, overnight fasted SD rats (CHARLES RIVER LABORATORIES JAPAN. Inc., Crj:CD(SD)IGS, male, 9 weeks of age, 300-330 g) were used.
Example 346 compound of 2.90 mg was dissolved by adding 29.0 μL of dimethyl sulfoxide and 2320 μL of polyethylene glycol 400. And then, the solution was mixed with 3450 μL of saline. This 0.5 mg/mL solution was used for administration.
Rats were fasted for overnight. The body weights of rats were measured and urinary glucose excretions were calculated as with the Test Example 2 except for intravenously injection to the tail veins of rats at the dose of 2 mL/kg (1 mg/kg as test compound).

human SGLT2 = biological target: T1, human SGLT2 (Homo sapiens, UniProt P31639); experiment: Inhibition of methyl-α-D-glucopyranoside (α-MG) uptake in COS-7 cells expressing human SGLT2; format: cell-based; conditions: COS-7 cells expressing human SGLT2, 1 mM α-MG, 1 hour incubation at 37° C.
T1 construct: expressed in transfected cells; host or cells: COS-7 cells, transient lipofection (Lipofectamine-2000) of pcDNA3.1(-) vector
T1 sequence (P31639 1-672): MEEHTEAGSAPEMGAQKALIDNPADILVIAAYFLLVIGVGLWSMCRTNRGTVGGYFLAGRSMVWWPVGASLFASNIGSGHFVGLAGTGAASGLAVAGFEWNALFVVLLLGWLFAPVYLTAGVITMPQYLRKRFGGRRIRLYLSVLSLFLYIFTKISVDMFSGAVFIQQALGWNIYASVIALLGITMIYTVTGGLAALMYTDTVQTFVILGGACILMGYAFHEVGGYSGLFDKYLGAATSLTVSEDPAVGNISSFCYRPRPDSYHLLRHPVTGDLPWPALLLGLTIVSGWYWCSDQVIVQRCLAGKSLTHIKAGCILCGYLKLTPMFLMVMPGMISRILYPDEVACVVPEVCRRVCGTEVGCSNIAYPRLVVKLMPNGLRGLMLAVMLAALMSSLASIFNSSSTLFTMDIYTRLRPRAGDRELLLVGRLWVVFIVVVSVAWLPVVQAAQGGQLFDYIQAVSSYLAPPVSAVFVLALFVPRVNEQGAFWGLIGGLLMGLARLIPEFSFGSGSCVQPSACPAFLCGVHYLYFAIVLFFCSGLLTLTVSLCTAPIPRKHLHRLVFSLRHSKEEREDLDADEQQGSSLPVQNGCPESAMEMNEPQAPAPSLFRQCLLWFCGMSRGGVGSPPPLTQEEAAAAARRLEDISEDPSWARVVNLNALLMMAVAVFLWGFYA
Protocol: (§1) Assay for Inhibitory Effects on Human SGLT Activity
(§2) The cDNA library was prepared for PCR amplification by reverse transcription from total RNA deprived from human kidney (Ori gene) using oligo-dT as a primer. Using this cDNA library as a template, the DNA fragment coding 2 to 2039 bp of human SGLT2 (ACCESSION: M95549, M95299), which was reported by R. G. Wells et al., was amplified by PCR method and inserted into the multi-cloning site of pcDNA3.1(−) (Invitrogen). The DNA sequence inserted was perfectly matched to the previously reported sequence.
(§3) The vector expressing human SGLT1 or SGLT2 was transfected into COS-7 cells by lipofection method (Lipofectamine-2000: Invitrogen). First, COS-7 cells were plated 5×10^4 cells/100 μL/well on 96-wells plate and incubated at 37° C. for 2 hours. In addition, per 50 μL medium, 0.3 μg of human SGLT1 or SGLT2 expression vector was mixed with 0.5 μL of Lipofectamine-2000 and the complex solution was prepared. Fifty μL/well of this complex solution was added to COS-7 cells, previously described, and the plate was mixed gently and was used for uptake assay after 2 days culture.
(§4) A mixture of non-labeled (Sigma) and ^14C-labeled α-MG (Amersham Pharmacia Biotech) was added to the uptake buffer (pH 7.4; containing 140 mM sodium chloride, 2 mM potassium chloride, 1 mM calcium chloride, 1 mM magnesium chloride, 10 mM 2-[4-(2-hydroxyethyl)-1-piperazinyl]ethane sulfonic acid and 5 mM tris(hydroxymethyl)aminomethane) at the final concentration of 1 mM. A test compound was dissolved in dimethyl sulfoxide, and then appropriately diluted with distilled water. The test compound solution was added to the uptake buffer containing 1 mM α-MG, and designated as a measurement buffer. For the control group, the measurement buffer without any test compound was prepared. For measuring the basal uptake, a basal uptake measurement buffer, which contains 140 mM chorine chloride instead of sodium chloride, was prepared. After removing the culture medium of cells expressing human SGLT1 or human SGLT2, 180 μL of the pre-treatment buffer (the basal uptake buffer without α-MG) was added to each well and incubated at 37° C. for 10 minutes. After repeating the same treatment, the pre-treatment buffer was removed, and then 75 μL per well of the measurement buffer or the basal uptake buffer was added and the cells were incubated at 37° C. After 1 hour incubation, the measurement buffer was removed and the cells were washed twice with 180 μL per well of the washing buffer (the basal uptake buffer containing 10 mM non-labeled α-MG). The cells were solubilized by 75 μL per well of 0.2 mol/L sodium hydroxide, and then the cell lysates were transferred into PicoPlates (Packard). One hundred fifty μL of Microscint-40 (Packard) was added to the wells and mixed. Radioactivity was measured by means of micro-scintillation counter TopCount (Packard). One hundred % was set to the difference between the uptake in the control group and the basal uptake, and the uptake of methyl α-D-glucopyranoside at each drug concentration was calculated. The drug concentration, at which 50% uptake of methyl α-D-glucopyranoside was inhibited (IC50 value), was calculated using logit plot. The blanks in the Table are untested.

human SGLT1 = biological target: T2, human SGLT1 (Homo sapiens, UniProt P13866); experiment: Inhibition of methyl-α-D-glucopyranoside (α-MG) uptake in COS-7 cells expressing human SGLT1; format: cell-based; conditions: COS-7 cells expressing human SGLT1, 1 mM α-MG, 1 hour incubation at 37° C.
T2 construct: expressed in transfected cells; host or cells: COS-7 cells, transient lipofection (Lipofectamine-2000) of pcDNA3.1(-) vector
T2 sequence (P13866 1-664): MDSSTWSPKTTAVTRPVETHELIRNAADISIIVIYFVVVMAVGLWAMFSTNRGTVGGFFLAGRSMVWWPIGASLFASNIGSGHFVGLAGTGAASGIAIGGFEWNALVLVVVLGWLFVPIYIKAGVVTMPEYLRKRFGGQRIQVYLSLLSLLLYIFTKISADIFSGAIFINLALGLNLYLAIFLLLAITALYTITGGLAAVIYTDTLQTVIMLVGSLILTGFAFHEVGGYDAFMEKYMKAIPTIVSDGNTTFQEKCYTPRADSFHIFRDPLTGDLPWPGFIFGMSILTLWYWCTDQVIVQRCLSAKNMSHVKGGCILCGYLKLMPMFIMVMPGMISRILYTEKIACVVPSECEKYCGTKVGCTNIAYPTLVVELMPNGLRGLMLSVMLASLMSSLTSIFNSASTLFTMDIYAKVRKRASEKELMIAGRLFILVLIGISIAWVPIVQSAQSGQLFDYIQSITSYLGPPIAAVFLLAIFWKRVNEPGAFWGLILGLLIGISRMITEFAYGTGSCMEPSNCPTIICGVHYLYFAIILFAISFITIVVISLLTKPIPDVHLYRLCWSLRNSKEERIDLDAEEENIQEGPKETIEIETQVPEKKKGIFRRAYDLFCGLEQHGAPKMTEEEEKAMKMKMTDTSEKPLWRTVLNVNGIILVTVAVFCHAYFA
Protocol: as §1
as §2, with “small intestine” for “kidney”, “1” for “2”, “2005” for “2039”, “SGLT1” for “SGLT2”, “M24847),” for “M95549, M95299),”, “Hediger” for “R. G. Wells”
as §3
as §4, with “After 1 hour incubation, the measurement buffer was removed and the cells were washed twice with 180 μL per well of the washing buffer (the basal uptake buffer containing 10 mM non-labeled α-MG). The cells were solubilized by 75 μL per well of 0.2 mol/L sodium hydroxide, and then the cell lysates were transferred into PicoPlates (Packard). One hundred fifty μL of Microscint-40 (Packard) was added to the wells and mixed.” left out, “The drug concentration, at which 50% uptake of methyl α-D-glucopyranoside was inhibited (IC50 value), was calculated using logit plot. The blanks in the Table are untested.” left out

[2] = Test Example 2: effect on urinary glucose excretion; format: in vivo; conditions: overnight fasted male SD rats, 7 weeks of age, 1 mg/kg intravenously (3 mL/kg), urine collected for 24 hours
Protocol: As experimental animals, overnight fasted SD rats (CHARLES RIVER LABORATORIES JAPAN. Inc., Crj:CD(SD(IGS), male, 7 weeks of age, 200-230 g) were used.
Example 10 compound of 2.12 mg was dissolved by adding 636 μL of ethanol and 2544 μL of polyethylene glycol 400. And then the solution was mixed with 3180 μL of saline and sonicated. Example 12 compound of 2.18 mg was dissolved by adding 654 μL of ethanol and 2616 μL of polyethylene glycol 400. And then the solution was mixed with 3270 μL of saline and sonicated. These test compound solutions of 0.33 mg/mL were used for administration.
The body weights of rats were measured and the solution of the test compound was intravenously injected to the tail vein of rats at the dose of 3 mL/kg (1 mg/kg as test compound). Collection of urine was performed for 24 hours after the administration. […]
Frozen samples were thawed and mixed well. According to need, a part of samples was diluted with distilled water and the glucose concentration of these samples was measured with a kit for laboratory test: Glucose CII-Test WAKO (Wako Pure Chemical Industries, Ltd.).
The amounts of urinary glucose excretion per 200 g of body weight were calculated from glucose concentration of urinary samples, dilution factor, urinary volume and body weight using the following equation. […]

[3] = Test Example 4: inhibitory effects on blood glucose level increase, liquid meal tolerance test in diabetic rats; format: in vivo; conditions: streptozotocin diabetic rats, 2 mg/kg orally, liquid meal load, mean ± S.E.
Protocol: Rats, aged 8 weeks old, were injected streptozotocin (45 mg/kg) intravenously from tail vain. After 1 week, rats were fasted overnight and then glucose tolerance test (2 g/kg) was performed.
After overnight fasted, the diabetic rats were or ally administered a test compound (2 mg/kg), which was dissolved in distilled water, in the drug-treating group, or distilled water alone in a control group. Immediately after the compound administration, 3 mL/body of liquid meal (No. 038, Control diet, assorted with dextrin and maltose; Oriental Yeast Co., Ltd., prepared for 323 g/L) was loaded or ally. The blood was collected from tail artery immediately before and after administration with the time course, and treated with heparin immediately. The blood was centrifuged, and the plasma was collected and quantified the plasma glucose concentration by glucose oxidase method. The values in the Table are presented as the mean ±S.E.

Structure (SMILES) | IC50 (human SGLT2) | IC50 (human SGLT1) | further results
COc1ccc(Sc2cn([C@@H]3O[C@H](CO)[C@@H](O)[C@H](O)[C@H]3O)c3cc(C)ccc23)cc1 [Example 346, 1-(β-D-Glucopyranosyl)-3-{(4-methoxyphenyl)sulfany}-6-methyl-1H-indole] | 0.4 nM | – | Amount of urinary excretion of glucose in 24 hours [1]: 33.12 mg/200 g body weight
COc1ccc(Cc2cn([C@@H]3O[C@H](CO)[C@@H](O)[C@H](O)[C@H]3O)c3cc(C)ccc23)cc1 [Example 12, 1-(β-D-glucopyranosyl)-3-(4-methoxybenzyl)-6-methyl-1H-indole] | 0.9 nM | 3200 nM | Amount of urinary excretion of glucose in 24 hours [2]: 111.8 mg/200 g body weight
CCOC(=O)[C@H](CO)NC(=O)CCCc1ccc(Cc2cn([C@@H]3O[C@H](CO)[C@@H](O)[C@H](O)[C@H]3O)c3cccc(C)c23)cc1 [Example 320] | – | – | Plasma glucose concentration 0.5 h ([3]; 0.5 hour after administration): 230 ± 14 mg/dL; Plasma glucose concentration 1 h ([3]; 1 hour after administration): 312 ± 15 mg/dL; Plasma glucose concentration 0 h ([3]; pretreatment (0 h)): 133 ± 10 mg/dL
Cc1cccc2c1c(Cc1ccc(OCCCNCCC(N)=O)cc1)cn2[C@@H]1O[C@H](CO)[C@@H](O)[C@H](O)[C@H]1O [Example 318, 3-[(4-{3-[2-(Carbamoyl)ethylamino]propoxy}phenyl)methyl]-1-(β-D-glucopyranosyl)-4-methyl-1H-indole] | – | 122 nM | –
CCc1ccc(Cc2cn([C@@H]3O[C@H](CO)[C@@H](O)[C@H](O)[C@H]3O)c3ccccc23)cc1 [Example 10] | 0.5 nM | – | Amount of urinary excretion of glucose in 24 hours [2]: 11.2 mg/200 g body weight
Cc1cccc2c1c(Cc1ccc(CCCC(=O)NC(C)(C)C(=O)N3CCNCC3)cc1)cn2[C@@H]1O[C@H](CO)[C@@H](O)[C@H](O)[C@H]1O [Example 329, 1-(β-D-Glucopyranosyl)-3-(4-[3-{1-(piperazin-1-yl-carbonyl)-1-(methyl)ethylcarbamoyl}propyl]phenyl)methyl-4-methyl-1H-indole] | – | 41 nM | –
COc1ccc(Cc2cn([C@@H]3O[C@H](CO)[C@@H](O)[C@H](O)[C@H]3O)c3ccccc23)c(F)c1 [Example 15] | 11 nM | – | –
COc1ccc(Cc2cn([C@@H]3O[C@H](CO)[C@@H](O)[C@H](O)[C@H]3O)c3cccc(C)c23)cc1 [Example 8] | 0.6 nM | 10 nM | –
